The source of these data is publication PMC9645390, “Amphiphilic stilbene derivatives attenuate the neurotoxicity of soluble Aβ42 oligomers by controlling their interactions with cell membranes” (Chemical Science, 2022).

Series [1] has as its target Aβ oligomers. To be noted: read-out: Kd, oligomer-selective probe; cited from earlier work.
Series [2] addresses T1, Aβ42 fibrils (Homo sapiens, UniProt P05067).
T1 construct: 1 mg of commercial Aβ42 monomer powder (from GL biochem) was dissolved in 1; purchased GL biochem
Nature of the series: Fluorescence saturation binding assay with Aβ42 fibrils. To be noted: Aβ42 fibrils. Here is the method:
(§1) Fig. 3 Binding constant measurements of ZY-5-OMe (left), ZY-5-MT (middle), ZY-5-DT (right) with Aβ42 fibrils (top), and oligomers (bottom). The measurements were performed in 10 mM phosphate buffered saline (PBS), pH 7.4. The Kd curves were fitted in GraphPad Prism with one site-specific binding model. Equation: Y = Bmax × X/(Kd + X). [Aβ42 fibrils] = [Aβ42 oligomers] = 5 μM.
(§2) Preparation of the Aβ42 Fibrils and Aβ42 Oligomers
(§3) Aβ42 fibrils: 1 mg of commercial Aβ42 monomer powder (from GL biochem) was dissolved in 1
(§4) mL 1,1,1,3,3,3-hexafluoro-2-propanol (HFIP) at room temperature and incubated for 1h. The
(§5) resulting solution was divided equally into two Eppendorf tubes. The solution in each Eppendorf
(§6) tube containing 0.5 mg Aβ42 monomer was then evaporated overnight and dried by vacuum
(§7) centrifuge to generate monomeric films. 100 μM Aβ42 fibrils solution was prepared by dissolving
(§8) the 0.5 mg monomeric films in 1.1 mL PBS buffer (with final DMSO concentration less than 1%)
(§9) and stiring at 37 °C for 3 days.
(§10) Aβ42 oligomers: The 0.5 mg monomeric films were dissolved in 1.1 mL PBS buffer (with final
(§11) DMSO concentration less than 1%) and incubated at 4 °C overnight. The resulting solution was
(§12) then centrifuged at 3000 rpm for 15 mins to remove the insoluble aggregates. The clear supernatant
(§13) was then used for the following experiments. […]
(§14) In Vitro Saturation Binding Studies with Aβ42 Fibrils and Aβ42 Oligomers
(§15) To a solution of increasing concentrations of compounds, a fixed concentration of the generated
(§16) aggregated Aβ42 fibrils or Aβ42 oligomers solutions (5 to 15 μM) was added to yield a total volume
(§17) of 100 μL. Nonspecific binding was determined without compounds. The mixture was incubated
(§18) for 15 min at room temperature. All fluorescence data were obtained on a SpectraMax M2e plate
(§19) reader (Molecular Devices).

The target of series [3] is T2, Aβ42 oligomers (Homo sapiens, UniProt P05067).
T2 construct: 1 mg of commercial Aβ42 monomer powder (from GL biochem) was dissolved in 1; purchased GL biochem
T2 sequence (P05067 672-713 limits assumed): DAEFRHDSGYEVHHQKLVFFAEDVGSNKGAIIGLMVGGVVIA
Kind of series: Fluorescence saturation binding assay with Aβ42 oligomers. As for the experimental part: as §1, §2, §3, §4, §5, §6, §7, §8, §9, §10, §11, §12, §13, §14, §15, §16, §17, §18, §19

The target of series [4] is T3, Aβ plaques in 5xFAD mice brain sections (Homo sapiens, UniProt P05067).
T3 construct: aggregated Aβ species were commonly observed in brain sections from 5xFAD transgenic mice; tissue Jackson Laboratories; host or cells: brain sections of 9-month-old 5xFAD transgenic mice
T3 sequence (P05067 672-713 limits assumed): as above
Kind of series: Fluorescence imaging of 5xFAD mouse brain sections, colocalization with Congo Red. Conditions: 9-month-old 5xFAD brain sections; compound 5 μM, Congo red 2.5 μM. As for the experimental part: (§20) In order to confirm that the compounds can also bind to native Aβ species, brain sections collected from 9-month-old 5xFAD transgenic mice have been employed in the fluorescence imaging studies. […] The brain sections were first incubated with our compounds, followed by Congo Red (CR), which is a well-established fluorescent probe that can bind to Aβ plaques.[34] The treated brain sections were then imaged using fluorescence microscope. […] Immunostaining with the CF594-conjugated HJ 3.4 antibody (CF594-HJ3.4) was also performed to confirm that these six compounds can bind to Aβ species specifically in the brain sections (Fig. 5). Moreover, the log D values of the compounds were also measured by octanol-PBS partition assays.[35]
Fig. 4 Fluorescence microscopy images of 5xFAD mice brain sections co-incubated with amphiphilic compounds (top), Congo red (middle) and merged images (bottom, along with the Parson's correlation coefficients R). Concentrations: [amphiphilic compounds] = 5 μM, [Congo red] = 2.5 μM; scale bar: 125 μm. TEXT PRINTED IN THE PICTURE: ZY-5-MT: Merged R= 0.84 | ZY-12-DT: Merged R= 0.52 | ZY-12-OMe: Merged R= 0.77 | ZY-15-OMe: Merged R= 0.77 | ZY-17-DT: Merged R= 0.77 | ZY-17-OMe: Merged R= 0.72 […]
Histological Staining of 5×FAD Mice Brain Sections
5xFAD transgenic mice brain sections were blocked with bovine serum albumin (2% BSA in PBS, pH 7.4, 10 min). Then the mice brain sections were transferred to a PBS solution of the compound and incubated for 1 h. After which, the brain sections were transferred to a PBS solution of Congo Red or antibody HJ 3.4 (Professor David Holtzman, 1 μg/ml) and incubated for another 1 h. Then, the brain sections were treated with BSA again (5 min) followed by washing with PBS (3 × 2 min), DI water (3 × 2 min). Finally, the mice brain sections were mounted with non-fluorescent mounting media, and the images were obtained by using EVOS FL Auto 2. ImageJ Fiji program was used for colocalization analysis and determination of the Pearson’s correlation coefficient. The primary

Series [5] can be described thus: Log D by octanol-PBS partition assay. It is filed as physicochemical. Conditions: pH 7.4, fluorescence readout. Here is the method: as §20, with “assays.[35] […]” for “assays.[35]”
The Log D value was measured following a published procedure using slight modifications.4 In general, compounds in 0.5 mL octanol was subjected to partition with 0.5 mL octanol-saturated
PBS. The whole mixture was stirred vigorously for 5 min, and centrifuged at 2,000 rpm for 5 min.
The top octanol layer was separated for later fluorescence measurement. The remaining PBS layer was partitioned with 0.5 mL PBS-saturated octanol, and the second top octanol layer was then separated after vigorous stirring and centrifuging at 2,000 rpm for another 5 min. The two octanol layers’ fluorescence spectra were recorded. The log D value was calculated by the fluorescence intensity ratio at the compounds’ emission wavelength for the above two octanol extractions. […]

The nature of series [6]: Alamar Blue cytotoxicity assay in N2a cells. It is filed as cell-based, mouse. To be noted: mouse, N2a (Neuro2A) neuroblastoma cells, 40 h, read-out: cell viability. Here is the method:
(§21) After confirming these amphiphilic compounds can bind to Aβ species both in vitro and ex vivo, we next investigated whether these compounds could attenuate the toxicity of the Cu–Aβ species, as the Cu^2+ ions were reported to promote the formation of neurotoxic soluble Aβ42 oligomers.[45,46] Firstly, the Alamar Blue cell viability assay was used to measure the cytotoxicity of the compounds at different concentrations ranging from 20 μM to 2 μM in mouse neuroblastoma N2a cells (Fig. 8). […] Considering its high binding affinity to both Aβ fibrils and oligomers, we also further tested its ability to alleviate Cu^2+–Aβ42-induced toxicity. […] The underlying mechanism is unclear, but we propose that these compounds might perform similarly to the toxic oligomers that bind to some cell membrane receptors or insert into the membrane lipids to form porous channels.
(§22) Alamar Blue assay was chosen for the cytotoxicity studies.3 Mouse neuroblastoma Neuro2A (N2A) cells were grown with DMEM/10% FBS in a petri dish at 37 °C in a humidified atmosphere with 5% CO2. Then N2A cells were seeded in a 96-well plate (1.0 × 10^4/well). After 24 h incubation, cell media was changed to DMEM/N-2, and N2A cells were incubated for another 1 h. Then the cells were treated with different concentrations of compounds for 40 h, Alamar Blue solution (10 μL) was added, and the cells were incubated for another 90 min at 37 °C. The fluorescence intensity of each well was measured at 590 nm (excitation wavelength = 560 nm).
(§23) For the Cu2+-Aβ-induced toxicity studies, cells were treated monomeric Aβ42, Cu2+, monomeric Aβ42 + Cu2+, and monomeric Aβ42 + Cu2+ + compounds, monomeric Aβ42 + Cu2+ + copper chelators (Me2HTACN or Me3TACN), respectively. After 40 h incubation, Alamar Blue solution (10 μL) was added, and the cells were incubated for another 90 min at 37 °C. The fluorescence intensity of each well was measured at 590 nm (excitation wavelength = 560 nm). […]
Background: Resazurin is reduced to fluorescent resorufin, in cell work by metabolically active cells.

For series [7], the system named is mouse neuroblastoma N2a cells. Kind of series: Alamar Blue cytotoxicity assay in N2a cells. It is filed as cell-based. Conditions: 2 to 20 μM. Here is the method:
as §21, §22, §23

SMILES strings stand for the structures. Some results are limits rather than exact numbers.

T1 sequence (P05067 672-713 limits assumed): as above

For orientation: Kd means the concentration at which binding is half-saturated. As to `CCOc1cccc(C=Cc2cc(C)c3n2[B-](F)(F)[N+]2=C(CCC(=O)OCC(Cl)(Cl)Cl)C=CC2=C3)c1O` [BD-Oligo], in series [1], the Kd was 0.48 µM.

The term logD denotes the decadic logarithm of the distribution of all forms, ionised or not, between an organic phase and buffer at a given pH. Low readings indicate lower lipophilicity, high ones higher lipophilicity. Usually viability stands for a read-out of living cells in per cent, often relative to untreated cells. With `COc1cc(-c2ccc(/C=C/c3ccc(N(C)C)cc3)s2)cc(CN2CCN(C)CCN(C)CC2)c1O` [ZY-12-OMe], the Kd in series [2] (10 mM PBS pH 7.4, one site-specific binding model, read-out: Kd, Fibrils) was 0.39 µM; in series [3] (Aβ42 oligomers, 10 mM PBS pH 7.4, one site-specific binding model) it was 0.32 µM. Besides, the “binding ratio, Fibrils” value in series [2] (from cross point between plateau and initial slope) worked out at 8.5. Further, the “binding ratio, Oligomers” value in series [3] (Aβ42 oligomers, from cross point between plateau and initial slope) turned out to be 10.2. In addition, in series [3] (lower Kd for Aβ oligomers than Aβ fibrils), the “binding preference oligomers vs fibrils (from Kd values)” value is “higher binding affinity to oligomers over fibrils”. Further, the “Pearson's correlation coefficient R, colocalization with Congo Red” value in series [4] is on record as 0.77. Besides, in series [5], the logD amounted to 1.17 ± 0.026. For the same compound, the viability at 40 h, 5 µM in series [6] (at 5 μM) is > 75%. For the same compound, in series [6] (at 10 μM), the viability at 40 h, 10 µM is < 50%. For the same compound, in series [7], the “cytotoxicity (in words)” value was “higher cytotoxicity than others”.

Regarding `COCCOCCn1c2ccc(F)cc2c2cc(/C=C/c3cc[n+](CCO)c4ccccc34)ccc21` [F-SLOH], the Kd in series [1] is 0.66 µM.

Take `CCN(CC)c1ccc(/C=C/C2=[O+][B-](F)(F)OC(/C=C/c3ccc(N(CC)CC)nc3)=C2CCCOc2c(C)cccc2C)cn1` [CRANAD-102]: the Kd in series [1] was 0.0075 ± 0.01 µM.
